This is an account of results in article PMC6233196 (Nature Communications, 2018).

By Ki is commonly meant a dissociation constant, usually derived from enzyme kinetics or from competition with a known ligand.

One data set concerns the target GluN1 (native receptors). To be noted: read-out: Ki for GluN1; cited from earlier work.
The target of data set [1] is T1, GluN1/GluN3A receptors (Rattus norvegicus, UniProt P35439+Q9R1M7). The experiment in a line: Whole-cell patch-clamp of glycine currents in HEK293 cells expressing wild-type GluN1/GluN3A. To be noted: for Peak and steady-state current potentiation compared with CGP-78608: MDL-29951 200 nM, 7-CKA 10 µM, L-689560 1 µM pre-incubated; for Effect of reducing treatment on glycine-evoked responses: 20 min, glycine 100 µM.
T1 sequence (Q9R1M7 24-1135, other chains not shown): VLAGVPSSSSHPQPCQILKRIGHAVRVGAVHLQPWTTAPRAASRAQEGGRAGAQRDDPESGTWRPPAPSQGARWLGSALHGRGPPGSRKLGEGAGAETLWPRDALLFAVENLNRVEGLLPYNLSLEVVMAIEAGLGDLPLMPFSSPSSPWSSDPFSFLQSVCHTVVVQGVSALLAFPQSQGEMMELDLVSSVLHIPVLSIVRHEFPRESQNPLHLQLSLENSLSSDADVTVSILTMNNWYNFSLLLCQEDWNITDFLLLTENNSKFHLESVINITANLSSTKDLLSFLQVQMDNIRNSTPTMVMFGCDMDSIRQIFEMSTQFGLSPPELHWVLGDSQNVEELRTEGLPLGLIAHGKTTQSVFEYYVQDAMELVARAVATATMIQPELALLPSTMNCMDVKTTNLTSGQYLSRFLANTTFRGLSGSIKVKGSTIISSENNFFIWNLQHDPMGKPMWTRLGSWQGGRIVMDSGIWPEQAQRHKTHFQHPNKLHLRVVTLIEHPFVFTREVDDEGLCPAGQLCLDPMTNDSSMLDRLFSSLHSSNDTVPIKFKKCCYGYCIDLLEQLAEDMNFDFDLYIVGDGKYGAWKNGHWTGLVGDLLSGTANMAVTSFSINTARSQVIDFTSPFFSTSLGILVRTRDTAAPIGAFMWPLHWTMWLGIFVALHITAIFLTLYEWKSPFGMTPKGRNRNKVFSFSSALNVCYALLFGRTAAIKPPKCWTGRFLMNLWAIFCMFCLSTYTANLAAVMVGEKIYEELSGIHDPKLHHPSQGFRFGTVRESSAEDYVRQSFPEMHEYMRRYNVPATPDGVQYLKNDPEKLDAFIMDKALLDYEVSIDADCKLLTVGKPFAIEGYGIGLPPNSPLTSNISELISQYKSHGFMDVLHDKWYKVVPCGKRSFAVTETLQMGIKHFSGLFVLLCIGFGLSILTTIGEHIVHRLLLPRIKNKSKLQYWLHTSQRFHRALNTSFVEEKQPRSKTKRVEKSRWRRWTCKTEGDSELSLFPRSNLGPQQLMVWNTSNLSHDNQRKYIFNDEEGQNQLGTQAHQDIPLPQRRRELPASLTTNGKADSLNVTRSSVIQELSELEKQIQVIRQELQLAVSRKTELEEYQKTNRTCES
Protocol: HEK293 cells were used for heterologous expression of recombinant GluN1/GluN3 receptors studied using whole-cell patch-clamp. […] Recordings were performed 24–48 h following cell transfection. The extracellular solution contained (in mM): 140 NaCl, 2.8 KCl, 1 CaCl2, 10 HEPES and 20 Sucrose (290–300 mOsm), pH adjusted to 7.3 using NaOH. […] Drugs and agonists were applied using a multi-barrel solution exchanger (RSC 200; Bio-logic). Recordings were performed at −60 mV and at room temperature. […] EC50, a and nH were set as free parameters.

The target in the next data set is GluN3A ABD. To be noted: read-out: Glycine affinity; isolated GluN3A ABD; cited from earlier work.
Data set [2] has as its system CA1 pyramidal cells of GluN3A-KO mice. The data set can be described thus: Glycine puffs onto voltage-clamped CA1 pyramidal cells, hippocampal slices of GluN3A-KO mice. The class given is cell-based, mouse. The settings on record: glycine 10 mM puff. Here is the method:
(§1) Ex-vivo electrophysiological experiments were performed on coronal slices from the brains of juvenile wild-type (WT) and GluN3A-KO mice originating from the same litters (8–12 days old). Slices were prepared as described previously. Briefly, mice were anesthetized with isofluorane before decapitation. After isolation, the portion of the brain containing the hippocampus was placed in bicarbonate-buffered saline (BBS) at 2–5 °C for a few minutes. Slices (300 μm) were then cut using a 7000 smz-2 vibratome (Campden). The slicing procedure was performed in an ice-cold solution containing (in mM): 130 K^+- gluconate, 15 KCl, 0.05 EGTA, 20 Hepes, 25 glucose, 1 CaCl2, and 6 MgCl2 supplemented with DL-APV (50 µM).
(§2) CA1 neurons were recorded from both the ventral and the dorsal hippocampus. Cells were visualized with a combination of Dodt contrast, and an on-line video contrast enhancement. CA1 cells could be easily identified in the red light with which slices were visualized using a CoolSnap HQ2 CCD camera (Photometrics) run by MetaMorph (Universal Imaging). Whole-cell recordings were performed with an EPC-10 double amplifier (Heka Elektronik) run by PatchMaster (Heka). […] Series resistance was partially compensated (max 65%), whereas liquid junction potentials were not corrected. Recordings were performed at a holding potential of −60 mV.

In data set [3] the target is T2, GluN1/GluN3A receptors in CA1 pyramidal cells (Mus musculus, UniProt A2AIR5+P35438).
T2 construct: from tissue; host or cells: acute hippocampal slices (CA1 pyramidal cells) of P8-P12 wild-type mice
T2 sequence (A2AIR5 27-1135, other chains not shown): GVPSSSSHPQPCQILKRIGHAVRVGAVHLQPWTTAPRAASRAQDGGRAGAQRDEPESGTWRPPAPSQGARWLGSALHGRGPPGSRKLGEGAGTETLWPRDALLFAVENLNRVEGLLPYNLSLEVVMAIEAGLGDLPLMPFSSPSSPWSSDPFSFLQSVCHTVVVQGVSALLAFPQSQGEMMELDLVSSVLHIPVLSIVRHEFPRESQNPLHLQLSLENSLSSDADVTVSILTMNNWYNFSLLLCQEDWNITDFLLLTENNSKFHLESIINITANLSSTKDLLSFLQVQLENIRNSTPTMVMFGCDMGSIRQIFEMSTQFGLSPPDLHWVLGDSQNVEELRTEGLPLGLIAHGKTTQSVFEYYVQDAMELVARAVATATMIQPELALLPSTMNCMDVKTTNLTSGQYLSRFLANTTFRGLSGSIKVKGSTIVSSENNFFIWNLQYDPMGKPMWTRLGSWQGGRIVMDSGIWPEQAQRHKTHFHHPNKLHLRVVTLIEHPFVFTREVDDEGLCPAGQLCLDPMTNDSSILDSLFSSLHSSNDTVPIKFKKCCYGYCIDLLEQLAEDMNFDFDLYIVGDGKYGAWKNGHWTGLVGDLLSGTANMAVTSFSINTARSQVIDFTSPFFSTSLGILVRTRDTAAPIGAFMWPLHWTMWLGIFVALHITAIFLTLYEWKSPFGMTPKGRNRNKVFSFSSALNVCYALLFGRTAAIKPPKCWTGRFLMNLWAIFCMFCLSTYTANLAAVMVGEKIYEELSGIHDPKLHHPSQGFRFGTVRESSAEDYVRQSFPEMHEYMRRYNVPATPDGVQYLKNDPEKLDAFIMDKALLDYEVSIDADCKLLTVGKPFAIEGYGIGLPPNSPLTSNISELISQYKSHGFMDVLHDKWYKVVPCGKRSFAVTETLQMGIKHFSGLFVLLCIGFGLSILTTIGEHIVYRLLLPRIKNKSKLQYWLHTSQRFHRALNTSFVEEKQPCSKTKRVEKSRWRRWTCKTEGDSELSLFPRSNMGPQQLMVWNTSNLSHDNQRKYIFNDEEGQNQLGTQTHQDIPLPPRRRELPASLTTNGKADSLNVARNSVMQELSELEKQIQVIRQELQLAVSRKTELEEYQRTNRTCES
The data set can be described thus: Glycine puffs onto voltage-clamped CA1 pyramidal cells, hippocampal slices of wild-type mice. Type of data set: cell-based. The method, then:
as §1, §2

A further data set addresses GluN1 ABD. Details: method as in PMID 16641235. The settings on record: cited from earlier work; for Ki: isolated domains.
Data set [4] addresses T3, GluN1-F484A/GluN3A receptors (Rattus norvegicus, UniProt P35439+Q9R1M7, F484A).
T3 construct: while we record from intact (i.e. full length) membrane-imbedded receptors; expressed in transfected cells; host or cells: HEK293 cells
The data set can be described thus: Whole-cell patch-clamp in HEK293 cells, GluN1-F484A mutant. The class given is cell-based. The settings on record: CGP-78608 500 nM. Here is the method:
(§3) Cells were transfected using polyethylenimine with GluN1, GluN3A and GFP plasmids at a 1:3:1 ratio (0.3, 0.9 and 0.3 ng/µl respectively). Recordings were performed 24–48 h following cell transfection. […] EC50, a and nH were set as free parameters.
(Patch clamp records ionic current or voltage across a cell membrane.)

Data set [5] deals with T1, GluN1/GluN3A receptors. The data set can be described thus: Two-electrode voltage-clamp in Xenopus oocytes expressing wild-type GluN1/GluN3A. Type of data set: cell-based. Details: while we record from intact (i.e. full length) membrane-imbedded receptors; expressed in transfected cells; host or cells: HEK293 cells. To be noted: TCEP 5 mM, 20 min; glycine 100 µM. The method, then:
Oocytes from Xenopus lævis (Xenopus Express, Rennes, France) were used for heterologous expression of recombinant GluN1/GluN3A receptors studied using two-electrode voltage-clamp (TEVC). TEVC recordings were performed 3–4 days following injection. […] Each oocyte was co-injected with a mixture of GluN1 and GluN3A cDNA at a concentration of 50 ng/µl and at a 1:1 ratio. The standard external solution contained (in mM): 100 NaCl, 2.5 KCl, 0.3 BaCl2, 5 HEPES, 0.01 DTPA (diethylenetriamine-pentaacetic acid), pH 7.3. […]
EC50, a and nH were set as free parameters.
(Two-electrode voltage clamp is typically applied to oocytes expressing channels or transporters.)

Data set [6] has as its target GluN1-C744S-C798S/GluN3A-C859S-C913S receptors (Rattus norvegicus, UniProt P35439+Q9R1M7, C744S/C798S/C859S/C913S). To be noted: CNQX 50 µM. The method, then: as §3
For another data set, the system named is HEK cells. The data set can be described thus: Tolerability of reducing agent when patching HEK cells.

Entries after “also recorded” stand apart in the source; their conditions may differ.

GluN1-C744S-C798S/GluN3A-C859S-C913S receptors, sequence (Q9R1M7 24-1135 C859S/C913S, other chains not shown): as the sequence (Q9R1M7 24-1135, other chains not shown) above, with C836S, C890S counted along it
T3 sequence (Q9R1M7 24-1135, other chains not shown): as the sequence (Q9R1M7 24-1135, other chains not shown) above
Description for HEK cells: In the current work, TCEP was used on HEK cells and DTE on Xenopus oocytes.
When patching HEK cells, however, we observed that
Accordingly, we switched to TCEP,
DTE and TCEP, while both powerful to break disulfide
bonds, differ in their membrane permeability (DTE can cross membranes but not TCEP).

Turning to `O=C(O)CCc1c(C(=O)O)[nH]c2cc(Cl)cc(Cl)c12` [MDL-29951, 2-carboxy-4,6-dichloro-1H-indole-3-propanoic acid], the Ki at GluN1 (native receptors) was 140 nM. The “Potentiating factors at higher concentration” value at GluN1/GluN3A receptors [1] (MDL-29951 2 µM, glycine 1 mM) is “smaller than those observed at 200 nM”. Further, on GluN1/GluN3A receptors [1] (glycine 1 mM), the “Peak and steady-state current potentiation compared with CGP-78608” value is “orders of magnitude lower”.

On to `NCC(=O)O` [glycine, Glycine], for which the Kd on GluN3A ABD is 40.4 nM. The “Glycine-induced inward current amplitude” value in data set [2] (control conditions) worked out at 6.0 ± 0.8 pA; in [3] (glycine 10 mM puff, control conditions, WT P8-P12) it was 9.3 ± 1.4 pA.

Turning to `C[C@@H](NCc1cc(Br)cc2[nH]c(=O)c(=O)[nH]c12)P(=O)(O)O.Cl` [CGP-78608, [(1 S)-1-[[(7-Bromo-1,2,3,4-tetrahydro-2,3-dioxo-5-quinoxalinyl)methyl]amino]ethyl]phosphonic acid hydrochloride], the Ki at GluN1 ABD was 6.4 nM. Also, in data set [4], the “Potentiating effect on GluN1-F484A mutant” value is “insensitive; also recorded: almost completely abolished”. The “Glycine-induced inward current amplitude” value in data set [2] (bath CGP-78608 1 µM) was found to be 5.0 ± 0.6 pA.

Take `O=C(O)c1cc(=O)c2c(Cl)cc(Cl)cc2[nH]1` [DCKA, 5-7-Dichlorokynurenic acid]: the Glycine-induced current amplitude in [3] (bath DCKA 500 µM in presence of CGP-78608, WT) was 10.2 ± 2.7 pA.

Consider `O=C(O)c1cc(O)c2ccc(Cl)cc2n1` [7-CKA, 7-Chlorokynureic acid], for which the Ki at GluN1 ABD was 2600 nM. Further, the “Peak and steady-state current potentiation compared with CGP-78608” value on GluN1/GluN3A receptors [1] (glycine 1 mM) is recorded as “orders of magnitude lower”.

With `O=C(O)CCP(CCC(=O)O)CCC(=O)O` [TCEP, Tris(2-carboxyethyl)phosphine], on GluN1/GluN3A receptors [5], the “Effect of reducing treatment on glycine-evoked currents” value is “currents radically changed”. The “Effect of reducing treatment on glycine-evoked responses” value on GluN1/GluN3A receptors [1] (TCEP 5 mM) is “drastic effects”.

In the case of `N#Cc1cc2[nH]c(=O)c(=O)[nH]c2cc1[N+](=O)[O-]` [CNQX, 6-Cyano-7-nitroquinoxaline-2,3-dione], in [6] (glycine 100 µM), the “Effect on tail currents following glycine removal” value is given as “inhibited the large tail currents”. For the same molecule, in data set [6] (no added glycine), the “Displacement of holding current” value came out at 22.9 ± 8.3 pA. Besides, the “Outward displacement of holding current” value at GluN1/GluN3A receptors [1] (CNQX 50 µM, no added glycine) worked out at 0.6 ± 0.06 pA.

As to `N[C@H](CO)C(=O)O` [D-serine], the “Agonist efficacy relative to glycine” value at GluN1/GluN3A receptors [1] (D-serine up to 500 µM vs glycine 100 µM, CGP-78608 500 nM) is “lower efficacy than glycine”.

Take `O[C@H](CS)[C@@H](O)CS` [DTE, dithioerythritol]: in the data set with HEK cells, the “Tolerability by HEK cells” value is reported as “could induce cell toxicity”.

As for `O=C(Nc1ccccc1)N[C@H]1C[C@H](C(=O)O)Nc2cc(Cl)cc(Cl)c21` (relative stereo) [L-689560, trans-2-Carboxy-5,7-dichloro-4-phenylaminocarbonylamino-1,2,3,4-tetrahydroquinoline], the “Selectivity for GluN1 vs GluN3 ABD” value in the data set with GluN1 ABD (binding studies on isolated agonist-binding domains) was “even better than CGP-78608”. Moreover, on GluN1 ABD, the Ki was 29.3 nM. In addition, at GluN1/GluN3A receptors [1] (glycine 1 mM), the “Peak and steady-state current potentiation compared with CGP-78608” value is listed as “orders of magnitude lower”.

`N[C@@H](CCC(=O)N[C@@H](CS)C(=O)NCC(=O)O)C(=O)O` [GSH, reduced glutathione]: the “Effect of reducing treatment on glycine-evoked responses” value at GluN1/GluN3A receptors [1] (GSH 50 mM) is reported as “completely modified the current phenotype”.
